The target in one test is E. coli GUS (Escherichia coli, UniProt P05804). Briefly: GUS enzyme assay, manual version (purified E. coli GUS, 4MUG). It is filed as biochemical. How it is done: The semi-automated GUS high throughput enzyme assay was performed as previously described and was used to screen the Prestwick Chemical Collection. The follow-up studies were performed manually in a similar manner with the exception of plate type and volumes, as briefly outlined here. Compound stock solutions were made in 100% DMSO. […] Final concentrations in the assembled assay were 50 mM HEPES. pH 7.4, 0.01% Triton X-100, 1% DMSO. […] The enzyme reaction was allowed to proceed for 20 minutes at 23° C., and was terminated by the addition of 40 μl of a 1M sodium carbonate solution. […] Fluorescence data, expressed in relative fluorescence units (RFU), were normalized to DMSO (100% activity) and “no enzyme” (0% activity) controls as maximum and minimum responses, respectively. The Bovine taurus GUS enzyme assay was performed in an identical manner except Bovine taurus GUS enzyme (1 nM) was used instead of bacterial GUS. The IC50 values and Hill slopes were calculated from concentration response data using GraphPad Prism software (GraphPad Software Inc., La Jolla, Calif.) employing either four-parameter or a three parameter (fixed bottom) curve fit.
E. coli GUS, sequence (P05804 whole entry): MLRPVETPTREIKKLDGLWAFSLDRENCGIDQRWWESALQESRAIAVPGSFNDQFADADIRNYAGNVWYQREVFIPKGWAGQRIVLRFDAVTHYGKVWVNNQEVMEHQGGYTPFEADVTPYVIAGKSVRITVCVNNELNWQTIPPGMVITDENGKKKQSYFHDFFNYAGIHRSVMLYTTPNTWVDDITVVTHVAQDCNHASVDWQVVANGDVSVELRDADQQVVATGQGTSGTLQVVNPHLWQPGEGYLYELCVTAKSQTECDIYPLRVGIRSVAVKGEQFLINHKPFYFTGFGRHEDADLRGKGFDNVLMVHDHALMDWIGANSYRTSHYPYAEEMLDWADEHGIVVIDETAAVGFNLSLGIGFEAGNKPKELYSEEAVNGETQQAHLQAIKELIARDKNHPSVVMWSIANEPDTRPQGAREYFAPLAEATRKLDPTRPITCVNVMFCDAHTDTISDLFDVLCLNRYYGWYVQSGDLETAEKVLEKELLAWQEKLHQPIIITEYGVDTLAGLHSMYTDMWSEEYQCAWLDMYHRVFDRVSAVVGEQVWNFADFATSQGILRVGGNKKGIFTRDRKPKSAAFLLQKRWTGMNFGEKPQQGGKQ

In test [1] the target is endogenous GUS activity in whole E. coli cells (Escherichia coli, UniProt P05804). Briefly: GUS cell based assay (whole E. coli cells, 4MUG). The following applies: for potency shift, less potent in the cell-based assay compared to the enzyme assay: less potent in cells. How it is done: An E. coli cell based assay was developed in order to assess the activity of these drugs against whole cells, instead of purified enzyme. We took advantage of the well-known specificity and sensitivity of the 4MUG substrate to detect GUS activity in E. coli cells. This assay mimicked the enzyme assay in format, with the GUS enzyme replaced by live log-phase E. coli cells and the assay incubated for a longer time (2 hr) to detect GUS activity in these un-modified cells.
endogenous GUS activity in whole E. coli cells, sequence (P05804 whole entry): as above
Cultures of E col (DH5α) carrying the empty expression vector pCMV5 were grown over night in LB containing carbenicilin (50 μM) and then used to initiate fresh LB/carbenicillin cultures adjusted to an initial OD of 0.1. These cultures were allowed to reach an OD of 0.6 and then washed twice with 50 mM HEPES, pH 7.4 containing carbenicillin 50 μM, and concentrated by centrifugation to an OD of 1 for use in the assay. The GUS cell based assay was performed in an identical manner as the enzyme assay except the Triton X-100 was left out of the assay buffer, the E. coli cells replaced the enzyme and the reaction was allowed to proceed for 2 hrs at 37° C. The resulting data was analyzed as outlined for the enzyme assay.

Another test has as its system E. coli cells. Briefly: microbe, parasite or virus in culture. The following applies: Escherichia coli, 2 h.
The target of another test is E. coli β-glucuronidase (Escherichia coli, UniProt P05804). Briefly: biochemical.
E. coli β-glucuronidase, sequence (P05804 whole entry): as above
The target of test [2] is T1, mammalian GUS purified from Bovine taurus liver (Bos taurus, UniProt A3KMY8).
T1 sequence (A3KMY8 1-652): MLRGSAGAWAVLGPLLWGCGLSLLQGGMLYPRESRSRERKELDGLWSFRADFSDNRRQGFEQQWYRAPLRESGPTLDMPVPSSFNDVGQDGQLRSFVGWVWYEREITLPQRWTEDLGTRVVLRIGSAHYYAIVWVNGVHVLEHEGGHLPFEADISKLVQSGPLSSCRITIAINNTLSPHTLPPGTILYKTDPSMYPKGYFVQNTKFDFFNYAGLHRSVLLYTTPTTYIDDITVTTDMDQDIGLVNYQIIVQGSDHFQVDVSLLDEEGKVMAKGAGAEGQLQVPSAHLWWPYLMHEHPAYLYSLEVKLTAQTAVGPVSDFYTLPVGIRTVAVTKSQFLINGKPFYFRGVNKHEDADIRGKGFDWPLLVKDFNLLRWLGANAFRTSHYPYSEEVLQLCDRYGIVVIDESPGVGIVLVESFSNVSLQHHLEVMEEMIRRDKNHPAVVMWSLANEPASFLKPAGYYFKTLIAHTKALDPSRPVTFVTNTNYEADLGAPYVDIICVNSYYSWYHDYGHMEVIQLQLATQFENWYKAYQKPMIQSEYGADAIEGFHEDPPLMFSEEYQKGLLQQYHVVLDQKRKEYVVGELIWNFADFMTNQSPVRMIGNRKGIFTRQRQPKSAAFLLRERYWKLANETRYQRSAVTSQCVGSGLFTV
Briefly: Bovine taurus GUS enzyme assay. It is filed as biochemical.

For a further test, the target named is monoamine oxidase. The following applies: read-out: reported in vitro IC50 for inhibiting monoamine oxidase; rat brain homogenates; cited from earlier work.
The test system of a further test is MAO. The following applies: read-out: reported IC50 for MAO; depending on subclass of MAO-A or MAO-B, or total activity; cited from earlier work.
The mark [3] stands for this setting: running text, read-out: IC50 in the E. coli cell-based assay.
[4] abbreviates: running text, read-out: average IC50 in the E. coli GUS enzyme assay.

This is an account of results in patent US20210087163A1, “PHENOXY THIOPHENE SULFONAMIDES AND OTHER COMPOUNDS FOR USE AS INHIBITORS OF BACTERIAL GLUCURONIDASE” (NORTH CAROLINA CENTRAL UNIVERSITY, priority 2010, published 2021).

“Also recorded” adds a separate entry of the source. Where two headings read alike, the source gives them in different places.

As a reminder, the IC50 is the concentration at which inhibition is half-maximal. Usually viability stands for a per cent measure of how many cells are alive, often set against a control. Turning to `OC(c1cc(C(F)(F)F)nc2c(C(F)(F)F)cccc12)C1CCCCN1` (stereo not drawn) [Mefloquine, mefloquine], the IC50 was found to be 1210 nM at E. coli GUS (listed as mefloquine hydrochloride, read-out: average IC50 in the E. coli GUS enzyme assay) and 6000 nM in test [1] (read-out: IC50 in the E. coli cell-based assay). Besides, the “potency shift, less potent in the cell-based assay compared to the enzyme assay” value in test [1] is recorded as “over 4.9 fold”; in test [1] (listed as mefloquine), 5 fold. Moreover, the viability at 10 µM in the test with E. coli cells (read-out: viability of E. coli) amounted to 100%.
For `CC1(C)Cc2cccc(Oc3ccc(S(=O)(=O)NCc4cccc5ccccc45)s3)c2O1` [BRITE-354502], on E. coli β-glucuronidase (read-out: IC50, β-Glucuronidase Inhibitory activity of phenoxythiophene sulfonamides), the IC50 came to 965000 nM.
As to `Cc1cc(C(=O)NNCc2ccccc2)no1` [Isocarboxazid, isocarboxazid], the IC50 on E. coli GUS (average of at least three determinations, read-out: E. coli GUS Enzyme Assay IC50 ± SD) is 128 ± 56 nM; in test [1] (setting [3]), 336 ± 120 nM. In addition, the “activity against purified mammalian GUS, in words” value in test [2] is “no significant activity; also recorded: do not inhibit”.
As to `O=C(CCNNC(=O)c1ccncc1)NCc1ccccc1` [Nialamide, nialamide], the IC50 was 71 nM at E. coli GUS (setting [4]); 2600 to 13000 nM on monoamine oxidase; 17 nM in test [1] (setting [3]); 74800 nM in test [2] (average of at least three determinations, read-out: B. taurus GUS Enzyme Assay IC50 ± SD); roughly 75000 nM in test [2] (running text, read-out: IC50 against purified mammalian GUS). Further, in test [1] (more potent in cells), the “potency shift, more potent in the cell-based assay compared to the E. coli GUS enzyme assay” value turned out to be 4 fold. Moreover, the “activity against purified mammalian GUS, in words” value in test [2] is on record as “no significant activity; also recorded: do not inhibit”.
With `NC[C@H]1O[C@H](O[C@H]2[C@H](O)[C@@H](O[C@H]3O[C@H](CO)[C@@H](O)[C@H](N)[C@H]3O)[C@H](N)C[C@@H]2N)[C@H](O)[C@@H](O)[C@@H]1O` [Kanamycin], in the test with E. coli cells (read-out: reduction of activity in the viability assay), the inhibition at 50 µg/mL is greater than 90%.
As for `NNCCc1ccccc1` [Phenelzine, phenelzine], the IC50 is 70 to 900 nM in the test with MAO; 2280 nM at E. coli GUS (running text, listed as phenelzine, read-out: average IC50 in the E. coli GUS enzyme assay); 2200 nM on E. coli GUS (setting [4]); 7120 nM in test [1] (average of at least three determinations, 2 hrs at 37° C., read-out: E. coli Cell-Based Assay IC50 ± SD). In addition, the “potency shift, less potent in the cell-based assay compared to the enzyme assay” value in test [1] was 2.6 fold. Also, at E. coli β-glucuronidase (10 µM), the “inhibition in the Prestwick collection screen” value is on record as greater than 50%. The inhibition at 10 µM on E. coli β-glucuronidase (read-out: inhibition in the Prestwick collection screen) is 62%.
